{
  "source": "patent US20230065900A1",
  "about": "“COMPOSITIONS AND METHODS FOR MODULATING INFLAMMATION AND WOUND HEALING” (Alastin Skincare, Inc., priority 2020, published 2023)",
  "origin": "cited, not measured here",
  "system": "hyaluronic acid level",
  "conditions": "ex vivo human skin model",
  "data": [
    {"smiles": "CCCCCCCC(=O)CCc1ccc(O)c(OC)c1", "note": "[hydroxymethoxyphenyl decanone]", "values": [
      {"measurement": "stimulation of dermal hyaluronic acid level versus placebo", "result": 259, "unit": "%"},
      {"measurement": "stimulation of epidermal hyaluronic acid level versus placebo", "result": 198, "unit": "%"}
    ]}
  ]
}
